{"source": "paper PMC6155907", "about": "(Molecules : A Journal of Synthetic Chemistry and Natural …, 2016)", "key": {"[1]": {"tested_on": "human GLP-1R (GLP-1R-YFP)", "assay": "Confocal microscopy of receptor internalization", "type": "cell-based", "details": "5 min after 1 µM GLP-1; HEK-293 transiently expressing GLP-1R-YFP; live cell confocal microscopy; at least three experiments", "procedure": "HEK-293 cells transiently expressing GLP-1R-YFP were plated on to a poly-D-lysin-coated coverslip and mounted on to an “Attofluor” holder (Molecular Probes, Leiden, The Netherlands). The cellular location of GLP-1R-YFP was monitored by live cell confocal microscopy performed on a Zeiss LSM 510 meta system (Carl Zeiss, Oberkochen, Germany). YFP was excited with the 514 nm line of an argon laser, and images were taken with an oil-immersion 63× lens using the factory settings for YFP."}, "GLP-1R": {"tested_on": "GLP-1R", "details": "radioligand binding and time-resolved fluorescence resonance energy transfer; authors state own rate is in the same range; ref [22],[23]; cited from earlier work"}}}
{"smiles": "CC[C@H](C)[C@H](NC(=O)[C@H](Cc1ccccc1)NC(=O)[C@H](CCC(=O)O)NC(=O)[C@H](CCCCN)NC(=O)[C@H](C)NC(=O)[C@H](C)NC(=O)[C@H](CCC(N)=O)NC(=O)CNC(=O)[C@H](CCC(=O)O)NC(=O)[C@H](CC(C)C)NC(=O)[C@H](Cc1ccc(O)cc1)NC(=O)[C@H](CO)NC(=O)[C@H](CO)NC(=O)[C@@H](NC(=O)[C@H](CC(=O)O)NC(=O)[C@H](CO)NC(=O)[C@@H](NC(=O)[C@H](Cc1ccccc1)NC(=O)[C@@H](NC(=O)CNC(=O)[C@H](CCC(=O)O)NC(=O)[C@H](C)NC(=O)[C@@H](N)Cc1c[nH]cn1)[C@@H](C)O)[C@@H](C)O)C(C)C)C(=O)N[C@@H](C)C(=O)N[C@@H](Cc1c[nH]c2ccccc12)C(=O)N[C@@H](CC(C)C)C(=O)N[C@H](C(=O)N[C@@H](CCCCN)C(=O)NCC(=O)N[C@@H](CCCNC(=N)N)C(N)=O)C(C)C", "note": "[GLP-1, glucagon-like peptide-1]", "values": [{"measurement": "cellular location of GLP-1R-YFP after agonist stimulation", "setting": "[1]", "result": "the receptor appeared as punctate dots in the cytoplasm"}, {"measurement": "t1/2 of receptor internalization (range of previous studies)", "setting": "GLP-1R", "result": "2 to 3", "unit": "min"}]}
